What was measured:
[1] = test system: TYK-NU; experiment: In vitro combination study, ovarian cancer cell line TYK-NU; type: cell-based; conditions: read-out: Tazemetostat % inhibition at 20 μM
[2] = test system: MDA-MB-436; experiment: In vitro combination study, breast cancer cell line MDA-MB-436; type: cell-based
[3] = test system: TOV21G; experiment: In vitro combination study, ovarian cancer cell line TOV21G; type: cell-based; conditions: Homo sapiens, read-out: Tazemetostat % inhibition at 20 μM, 20 μM
[4] = test system: OVSAHO; experiment: In vitro combination study, ovarian cancer cell line OVSAHO; conditions: Homo sapiens, read-out: Tazemetostat % inhibition at 20 μM
[5] = test system: TOV112D; experiment: In vitro combination study, ovarian cancer cell line TOV112D; conditions: 20 μM
[6] = test system: ZR-75-1; experiment: In vitro combination study, breast cancer cell line ZR-75-1
[7] = test system: RMUGS*; experiment: In vitro combination study, ovarian cancer cell line RMUGS; conditions: 20 μM
[8] = test system: HCC1395
[9] = test system: HCC1569; experiment: In vitro combination study, breast cancer cell line HCC1569
[10] = test system: HCC1954; experiment: In vitro combination study, breast cancer cell line HCC1954; type: cell-based
[11] = test system: HCC1187; experiment: In vitro combination study, breast cancer cell line HCC1187; conditions: 10 μM
[12] = test system: SUM149PT
[13] = test system: SNU840; experiment: In vitro combination study, ovarian cancer cell line SNU840; conditions: SNU-840, read-out: Tazemetostat % inhibition at 20 μM
[14] = test system: OAW42; experiment: In vitro combination study, ovarian cancer cell line OAW42; conditions: Homo sapiens, OAW-42, read-out: Tazemetostat % inhibition at 20 μM
[15] = test system: SUM159PT; experiment: In vitro combination study, breast cancer cell line SUM159PT; conditions: 10 μM
[16] = test system: MDA-MB-175VII; experiment: In vitro combination study, breast cancer cell line MDA-MB-175VII; conditions: 10 μM
[17] = test system: CAOV-3; experiment: In vitro combination study, ovarian cancer cell line CAOV-3; type: cell-based; conditions: Homo sapiens, read-out: Tazemetostat % inhibition at 20 μM, 20 μM
[18] = test system: BT474; experiment: In vitro combination study, breast cancer cell line BT474; conditions: 10 μM
[19] = test system: HCC1806; experiment: In vitro combination study, breast cancer cell line HCC1806; type: cell-based
[20] = test system: SKOV3; experiment: In vitro combination study, ovarian cancer cell line SKOV3; conditions: 20 μM
[21] = test system: KURAMOCHI; experiment: In vitro combination study, ovarian cancer cell line KURAMOCHI; conditions: read-out: Tazemetostat % inhibition at 20 μM
[22] = test system: HCC1419; experiment: In vitro combination study, breast cancer cell line HCC1419; conditions: 10 μM
[23] = test system: MDA-MB-453; experiment: In vitro combination study, breast cancer cell line MDA-MB-453; type: cell-based; conditions: 10 μM
[24] = test system: SK-BR-3; experiment: In vitro combination study, breast cancer cell line SK-BR-3; type: cell-based
[25] = test system: HCC1937; experiment: In vitro combination study, breast cancer cell line HCC1937; conditions: 10 μM
[26] = test system: HCC1143; experiment: In vitro combination study, breast cancer cell line HCC1143; conditions: 10 μM
[27] = test system: EFM-19
[28] = test system: COV504; experiment: cells; conditions: COV504, read-out: Tazemetostat % inhibition at 20 μM
[29] = test system: COV434; experiment: cells; conditions: COV434, read-out: Tazemetostat % inhibition at 20 μM
[30] = test system: MDA-MB-468; experiment: In vitro combination study, breast cancer cell line MDA-MB-468
[31] = test system: OVISE; experiment: In vitro combination study, ovarian cancer cell line OVISE; conditions: read-out: Tazemetostat % inhibition at 20 μM
[32] = test system: MCF-7; experiment: In vitro combination study, breast cancer cell line MCF-7; type: cell-based
[33] = test system: MDA-MB-231; experiment: In vitro combination study, breast cancer cell line MDA-MB-231; conditions: 10 μM
[34] = test system: DU4475; experiment: In vitro combination study, breast cancer cell line DU4475; conditions: 10 μM
[35] = test system: OVCAR-3; experiment: In vitro combination study, ovarian cancer cell line OVCAR-3; type: cell-based; conditions: Homo sapiens, read-out: Tazemetostat % inhibition at 20 μM
[36] = test system: OV-90; experiment: In vitro combination study, ovarian cancer cell line OV-90; conditions: Homo sapiens, OV-90, read-out: Tazemetostat % inhibition at 20 μM
[37] = test system: HCC38; conditions: HCC38; 10 μM
[38] = test system: BT-20; experiment: In vitro combination study, breast cancer cell line BT-20; conditions: 10 μM
[39] = test system: SUM1315MO2; experiment: In vitro combination study, breast cancer cell line SUM1315MO2; type: cell-based
[40] = test system: A2780; experiment: In vitro combination study, ovarian cancer cell line A2780; conditions: Homo sapiens, A2780, read-out: Tazemetostat % inhibition at 20 μM
[41] = test system: BT549; experiment: In vitro combination study, breast cancer cell line BT549; conditions: 10 μM
[42] = test system: HCC202
[43] = test system: JH)S-4; experiment: In vitro combination study, ovarian cancer cell line JH)S-4; conditions: 20 μM
[44] = test system: COV644*; experiment: In vitro combination study, ovarian cancer cell line COV644; conditions: read-out: Tazemetostat % inhibition at 20 μM
[45] = test system: COV362; experiment: In vitro combination study, ovarian cancer cell line COV362; conditions: COV362, read-out: Tazemetostat % inhibition at 20 μM
[46] = test system: MDA-MB-157
[47] = test system: ES-2; experiment: In vitro combination study, ovarian cancer cell line ES-2; conditions: 20 μM
[48] = test system: OVMANA; experiment: In vitro combination study, ovarian cancer cell line OVMANA; conditions: read-out: Tazemetostat % inhibition at 20 μM
[49] = test system: SUM52PE; experiment: In vitro combination study, breast cancer cell line SUM52PE; conditions: 10 μM
[50] = test system: MDA-MB-361; experiment: In vitro combination study, breast cancer cell line MDA-MB-361; type: cell-based
[51] = test system: HCC70
[52] = test system: CAMA-1; experiment: In vitro combination study, breast cancer cell line CAMA-1; type: cell-based; conditions: 10 μM

Compound: CCN(c1cc(-c2ccc(CN3CCOCC3)cc2)cc(C(=O)NCc2c(C)cc(C)[nH]c2=O)c1C)C1CCOCC1 [Tazemetostat, tazemetostat]
- inhibition at 20 µM [1]: 0%
- Tazemetostat sensitivity at 10 μM (%) [2]: 10%
- inhibition at 20 µM [3]: 40%
- inhibition at 20 µM [4]: 0%
- Tazemetostat % inhibition at 20 μM [5]: 20%
- Tazemetostat sensitivity at 10 μM (%) [6]: 40%
- Tazemetostat % inhibition at 20 μM [7]: −20%
- Tazemetostat sensitivity at 10 μM (%) [8]: 25%
- Tazemetostat sensitivity at 10 μM (%) [9]: 20%
- Tazemetostat sensitivity at 10 μM (%) [10]: 0%
- Tazemetostat sensitivity at 10 μM (%) [11]: 0%
- Tazemetostat sensitivity at 10 μM (%) [12]: 30%
- inhibition at 20 µM [13]: 25%
- inhibition at 20 µM [14]: 15%
- Tazemetostat sensitivity at 10 μM (%) [15]: 50%
- Tazemetostat sensitivity at 10 μM (%) [16]: 10%
- inhibition at 20 µM [17]: 0%
- Tazemetostat sensitivity at 10 μM (%) [18]: 0%
- Tazemetostat sensitivity at 10 μM (%) [19]: 40%
- Tazemetostat % inhibition at 20 μM [20]: 15%
- inhibition at 20 µM [21]: 20%
- Tazemetostat sensitivity at 10 μM (%) [22]: 0%
- Tazemetostat sensitivity at 10 μM (%) [23]: 40%
- Tazemetostat sensitivity at 10 μM (%) [24]: 70%
- Tazemetostat sensitivity at 10 μM (%) [25]: 20%
- Tazemetostat sensitivity at 10 μM (%) [26]: 0%
- Tazemetostat sensitivity at 10 μM (%) [27]: 20%
- inhibition at 20 µM [28]: 30%
- inhibition at 20 µM [29]: 50%
- Tazemetostat sensitivity at 10 μM (%) [30]: 30%
- inhibition at 20 µM [31]: 0%
- Tazemetostat sensitivity at 10 μM (%) [32]: 50%
- Tazemetostat sensitivity at 10 μM (%) [33]: 0%
- Tazemetostat sensitivity at 10 μM (%) [34]: 35%
- inhibition at 20 µM [35]: 0%
- inhibition at 20 µM [36]: 15%
- Tazemetostat sensitivity at 10 μM (%) [37]: 20%
- Tazemetostat sensitivity at 10 μM (%) [38]: 0%
- Tazemetostat sensitivity at 10 μM (%) [39]: 35%
- inhibition at 20 µM [40]: 35%
- Tazemetostat sensitivity at 10 μM (%) [41]: 40%
- Tazemetostat sensitivity at 10 μM (%) [42]: 0%
- Tazemetostat % inhibition at 20 μM [43]: −20%
- inhibition at 20 µM [44]: 10%
- inhibition at 20 µM [45]: 0%
- Tazemetostat sensitivity at 10 μM (%) [46]: 0%
- Tazemetostat % inhibition at 20 μM [47]: 0%
- inhibition at 20 µM [48]: 20%
- Tazemetostat sensitivity at 10 μM (%) [49]: 50%
- Tazemetostat sensitivity at 10 μM (%) [50]: 10%
- Tazemetostat sensitivity at 10 μM (%) [51]: 35%
- Tazemetostat sensitivity at 10 μM (%) [52]: 30%

Reference: patent publication US11951108B2, “Combination therapy for treating cancer” (Epizyme, Inc., priority 2016, dated 2024)
